Source: PubChem BioAssay AID330 (DTP/NCI, 2004)
Where “and” joins values, the source holds several entries; their conditions need not be identical. Identical values can stand only once. Toxic doses and inconclusive results are not listed. How the source made its calls: active means survival T/C of 150% or more; inactive means T/C below 125% in these data.

System: P388 leukemia ip, CD2F1 mice, survival T/C
Test: NCI In Vivo Anticancer Drug Screen. Data for tumor model P388 Leukemia (intraperitoneal) in CD2F1 (CDF1) mice
Conditions: endpoint: median survival time, higher = longer survival
Summary of the method: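 Mice carrying the transplanted tumor received test compound or vehicle. Survival was recorded in each group, and the value is the treated-group measurement divided by that of the vehicle-treated control group.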

[1] = dose: 50.0 mg/kg/injection, schedule: Q01DX005 (ip), vehicle: Klucel (hydroxypropylcellulose) (HPC)
[2] = dose: 100.0 mg/kg/injection, schedule: Q01DX005 (ip), vehicle: Klucel (hydroxypropylcellulose) (HPC)
[3] = dose: 50.0 mg/kg/injection, schedule: Q04DX002 (ip), vehicle: saline with Tween-80
[4] = dose: 200.0 mg/kg/injection, schedule: Q01DX005 (ip), vehicle: Klucel (hydroxypropylcellulose) (HPC)
[5] = dose: 50.0 mg/kg/injection, schedule: Q01DX005 (ip), vehicle: saline with Tween-80
[6] = dose: 100.0 mg/kg/injection, schedule: Q01DX005 (ip), vehicle: saline with Tween-80

Measured: T/C

O=C(O)CCCCc1ccc(CCCCC(=O)O)cc1
inactive: dose: 18.75 mg/kg/injection, schedule: Q04DX003 (ip), vehicle: Klucel (hydroxypropylcellulose) (HPC) 106 % of control | dose: 37.5 mg/kg/injection, schedule: Q04DX003 (ip), vehicle: Klucel (hydroxypropylcellulose) (HPC) 111 % of control | dose: 75.0 mg/kg/injection, schedule: Q04DX003 (ip), vehicle: Klucel (hydroxypropylcellulose) (HPC) 113 % of control

COc1c(OC)c(OC)c(-c2cc(=O)c3c(OC)cccc3o2)c(OC)c1OC
inactive: dose: 25.0 mg/kg/injection, schedule: Q01DX005 (ip), vehicle: distilled water + Tween-80 + alcohol 102 % of control | dose: 50.0 mg/kg/injection, schedule: Q01DX005 (ip), vehicle: distilled water + Tween-80 + alcohol 96 % of control | dose: 100.0 mg/kg/injection, schedule: Q01DX005 (ip), vehicle: distilled water + Tween-80 + alcohol 95 % of control

OCCN1CCN(CCCN2c3cscc3Sc3ccc(Cl)cc32)CC1
inactive: [1] 94 % of control and 95 % of control | [2] 101 % of control

Cc1c(C)n(-c2ccccc2)c2nc(C)n(-c3ccccc3)c(=N)c12
inactive: [1] 101 % of control | [2] 100 % of control

COc1ccc(/C=N\N=C(/[O-])c2ccccc2O)cc1.COc1ccc(/C=N\N=C(/[O-])c2ccccc2O)cc1.[Co+2]
inactive: [3] 93 % of control | dose: 100.0 mg/kg/injection, schedule: Q04DX002 (ip), vehicle: saline with Tween-80 98 % of control | dose: 200.0 mg/kg/injection, schedule: Q04DX002 (ip), vehicle: saline with Tween-80 96 % of control

CC(C)(C)OC(=O)NC(CCCN=C(N)N)C(=O)O (stereo not given)
inactive: dose: 50.0 mg/kg/injection, schedule: Q01DX005 (ip), vehicle: saline 100 % of control | dose: 100.0 mg/kg/injection, schedule: Q01DX005 (ip), vehicle: saline 94 % of control | dose: 200.0 mg/kg/injection, schedule: Q01DX005 (ip), vehicle: saline 100 % of control

CCOC(=O)C1Cc2c([nH]c(=O)[nH]c2=O)OC1(C)c1ccccc1 (stereo not given)
inactive: [1] 103 % of control | [2] 98 % of control | [4] 97 % of control

COC(=O)/C=C\C1(CC(C)C)N=C(c2ccccc2)OC1=O (stereo not given)
inactive: [5] 104 % of control | [6] 95 % of control | dose: 200.0 mg/kg/injection, schedule: Q01DX005 (ip), vehicle: saline with Tween-80 104 % of control

C=C1C(C)C2C(Cc3ccccc3)NC(=O)C23C(OC(C)=O)/C=C/C(C)(O)CC(C)C/C=C/C3C1O (stereo not given)
inactive: dose: 3.13 mg/kg/injection, schedule: Q01DX009 (ip), vehicle: saline with Tween-80 121 % of control | dose: 6.25 mg/kg/injection, schedule: Q01DX009 (ip), vehicle: saline with Tween-80 124 % of control

C1CCC2(CC1)NN=C1CCCCC12 (stereo not given)
inactive: dose: 12.5 mg/kg/injection, schedule: Q01DX009 (ip), vehicle: other 101 % of control | dose: 25.0 mg/kg/injection, schedule: Q01DX009 (ip), vehicle: other 110 % of control | dose: 50.0 mg/kg/injection, schedule: Q01DX009 (ip), vehicle: other 104 % of control | dose: 100.0 mg/kg/injection, schedule: Q01DX009 (ip), vehicle: other 106 % of control | dose: 200.0 mg/kg/injection, schedule: Q01DX009 (ip), vehicle: other 116 % of control

O=C1CC(c2ccccc2)NCCC2CN(CCCN1)C(=O)c1ccccc12 (stereo not given)
inactive: dose: 16.25 mg/kg/injection, schedule: Q01DX005 (ip), vehicle: Klucel (hydroxypropylcellulose) (HPC) 100 % of control | dose: 32.5 mg/kg/injection, schedule: Q01DX005 (ip), vehicle: Klucel (hydroxypropylcellulose) (HPC) 100 % of control | dose: 65.0 mg/kg/injection, schedule: Q01DX005 (ip), vehicle: Klucel (hydroxypropylcellulose) (HPC) 100 % of control | dose: 130.0 mg/kg/injection, schedule: Q01DX005 (ip), vehicle: Klucel (hydroxypropylcellulose) (HPC) 100 % of control

O=N[O-].O=N[O-].[Co].[NH-]CC[N-]CCO.[NH-]CC[N-]CCO
inactive: dose: 6.25 mg/kg/injection, schedule: Q01DX009 (ip), vehicle: saline 95 % of control | dose: 12.5 mg/kg/injection, schedule: Q01DX009 (ip), vehicle: saline 99 % of control | dose: 25.0 mg/kg/injection, schedule: Q01DX009 (ip), vehicle: saline 94 % of control | dose: 50.0 mg/kg/injection, schedule: Q01DX009 (ip), vehicle: saline 95 % of control

CC(=O)C[n+]1ccc(C)cc1Sc1ccccc1C
inactive: dose: 25.0 mg/kg/injection, schedule: Q01DX005 (ip), vehicle: saline with Tween-80 101 % of control and 103 % of control | [5] 111 % of control and 113 % of control and 122 % of control | [6] 118 % of control and 120 % of control

C/C(=N\N=C(/N)N1CCCC1)c1ccc2c(c1)Cc1cc(/C(C)=N/N=C(\N)N3CCCC3)ccc1-2
inactive: dose: 25.0 mg/kg/injection, schedule: Q04DX002 (ip), vehicle: saline with Tween-80 98 % of control | [3] 98 % of control

CC(C)=NN/C=N/S(=O)(=O)c1ccc(C)cc1
inactive: [1] 104 % of control | [2] 104 % of control | [4] 104 % of control
